Values of other authors, collected in US12383593B2, “Organic pain relief and hair growth composition” (The Tao Talit Corporation, priority 2021, dated 2025).

Columns and labels:
orofacial nociception = details: in comparison with S. lavandulifolia essential oil
[1] = tested on: MAPKs and the NF-κB pathway; details: mouse peritoneal macrophages
[2] = tested on: capsaicin irritancy, sprains, heat hypersensitivity and headaches

Structure (SMILES): CC(C)=CCCC(C)(O)C1CC=C(C)CC1 (stereo not drawn) [(−)-α-bisabolol, 6-methyl-2-(4-methylcyclohex-3-en-1-yl)-hept-5-en-2-ol]
- solubility in ethanol (ethanol): soluble
- solubility in water and glycerin (water and glycerin): poorly soluble
- antinociceptive effect in the pain models (orofacial nociception): stronger effect

Structure (SMILES): CC1=CCC2CC1C2(C)C (stereo not drawn) [Alpha-pinene, α-pinene]
- anti-inflammatory activity [1]: anti-inflammatory activity through the suppression of mitogen-activated protein kinases (MAPKs) and the nuclear factor-kappa B (NF-κB) pathway

Structure (SMILES): C=C1C2CCC(C2)C1(C)C (stereo not drawn) [Camphene]
- solubility in organic solvents: very soluble
- solubility in water: nearly insoluble

Structure (SMILES): C=C(C)[C@H]1CC=C(C)CC1 [limonene, Limonene]
- action on a lymphoma cell line (lymphoma cell line; lymphoma cell line): anti-proliferative action
- normal lymphocyte viability (lymphoma cell line; normal lymphocytes): without modifying normal lymphocyte viability

Structure (SMILES): CC1CCC(C(C)C)C(O)C1 (stereo not drawn) [menthol, Menthol]
- cold allodynia and hyperalgesia ([2]; high concentrations, topical use or intraplantar injection): generated cold allodynia and hyperalgesia
- analgesic effect of topically applied menthol ([2]; low to moderate concentrations, topical): inhibit capsaicin irritancy, sprains, heat hypersensitivity and headaches

Structure (SMILES): Cc1ccc(C(C)C)cc1 [p-Cymene]
- solubility in organic solvents: miscible
- solubility in water: insoluble
